Laboratory results published in PMC6112376, “Comprehensive Analyses and Prioritization of Tox21 10K Chemicals Affecting Mitochondrial Function by in-Depth Mechanistic Studies” (Environmental Health Perspectives, 2018).
Like-named read-outs stand apart in the source and are kept apart here.

Experiments:
[1] = test system: Caenorhabditis elegans (Bristol N2); test: C. elegans larval development and growth assay; conditions: for minimal effective concentration: Caenorhabditis elegans, read-out: LEC EXT: lowest effect concentration for extinction, a measure of nematode size
[2] = test system: Caenorhabditis elegans strain PE255; test: In vivo C. elegans ATP status assay; conditions: for minimal effective concentration: Caenorhabditis elegans, read-out: LEC LUM: lowest effect concentration for luminescence, a measure of nematode ATP content
[3] = test system: isolated rat liver mitochondria; test: Oxygen consumption, Clark-type oxygen electrode; type: biochemical; conditions: for I-ADP, % of control (O2 consumption rate): glutamate/malate driven state 3 respiration; for I-ADP, % of control (O2 consumption rate) / I-sub, % of control (O2 consumption rate) / II-ADP, % of control (O2 consumption rate) / II-sub, % of control (O2 consumption rate): isolated rat liver mitochondria; for I-sub, % of control (O2 consumption rate): glutamate/malate driven state 4 respiration; for II-ADP, % of control (O2 consumption rate): succinate-driven state 3 respiration; for II-sub, % of control (O2 consumption rate): succinate-driven state 4 respiration; for Potential Mechanism: mitochondrial respiration in isolated rat liver mitochondria, Clark type oxygen electrode, over tested concentrations
HepG2 cells [4] = test: cells; conditions: Homo sapiens; for IC50: HepG2, read-out: MMP assays IC50 (µM) HepG2; for Emax: HepG2, read-out: MMP assays efficacy (%) HepG2
rat primary hepatocytes = test: MMP assay in rat primary hepatocytes; conditions: for IC50: Rattus norvegicus, Hepatocyte, read-out: MMP assays IC50 (µM) Rat Hepatocytes; for MMP assays efficacy (%) Rat Hepatocytes: mean ± SD of three experiments
HepG2 cells [5] = conditions: cited from earlier work; for IC50: read-out: MMP assays IC50 (µM) qHTS-HepG2

Structure (SMILES) | EXT: mean difference in nematode size relative to plate controls ([1]; 0.5 µM) | EXT: mean difference in nematode size relative to plate controls ([1]; 1 µM) | EXT: mean difference in nematode size relative to plate controls ([1]; 5 µM) | EXT: mean difference in nematode size relative to plate controls ([1]; 10 µM) | EXT: mean difference in nematode size relative to plate controls ([1]; 25 µM) | EXT: mean difference in nematode size relative to plate controls ([1]; 50 µM) | EXT: mean difference in nematode size relative to plate controls ([1]; 75 µM) | EXT: mean difference in nematode size relative to plate controls ([1]; 100 µM) | minimal effective concentration [1] [µM] | LUM: mean difference in luminescence (ATP content) relative to plate controls ([2]; 0.5 µM) | LUM: mean difference in luminescence (ATP content) relative to plate controls ([2]; 1 µM) | LUM: mean difference in luminescence (ATP content) relative to plate controls ([2]; 5 µM) | LUM: mean difference in luminescence (ATP content) relative to plate controls ([2]; 10 µM) | LUM: mean difference in luminescence (ATP content) relative to plate controls ([2]; 25 µM) | LUM: mean difference in luminescence (ATP content) relative to plate controls ([2]; 50 µM) | LUM: mean difference in luminescence (ATP content) relative to plate controls ([2]; 75 µM) | LUM: mean difference in luminescence (ATP content) relative to plate controls ([2]; 100 µM) | minimal effective concentration [2] [µM] | I-ADP, % of control (O2 consumption rate) ([3]; 20 µM) | I-sub, % of control (O2 consumption rate) ([3]; 20 µM) | other results
O=C1CCC(N2C(=O)c3ccccc3C2=O)C(=O)N1 (centres unmarked) [Thalidomide] | 0.09319 | -0.00358 | 0.07925 | 0.0474 | 0.0694 | 0.4966 | 0.9805 | 0.9456 | 50 | 0.03143 | 0.01645 | 0.01511 | 0.04635 | 0.07311 | -0.2127 | 0.4289 | 0.7958 | 75 |  |  | 
Cc1cc(Cc2cc(C)cc(C(C)(C)C)c2O)c(O)c(C(C)(C)C)c1 | 0.1192 | 0.1294 | 0.8511 | 1.077 | 1.41 | 2.096 | 2.103 | 2.175 | 5 | -0.1638 | -0.2926 | -0.4173 | -0.05227 | 0.3804 | 0.9583 | 0.4391 | 0.9663 | 50 | 103 (50.8) % of control | 116 (18.6) % of control | II-ADP, % of control (O2 consumption rate) ([3]; 20 µM): 101 (78.4) % of control; II-sub, % of control (O2 consumption rate) ([3]; 20 µM): 103 (31.4) % of control; I-ADP, % of control (O2 consumption rate) ([3]; 100 µM): 100 (28.6) % of control; I-sub, % of control (O2 consumption rate) ([3]; 100 µM): 244 (29.2) % of control; II-ADP, % of control (O2 consumption rate) ([3]; 100 µM): 91 (33.1) % of control; II-sub, % of control (O2 consumption rate) ([3]; 100 µM): 184 (27.2) % of control; Potential Mechanism [3]: Uncoupler; IC50 (HepG2 cells [4]): 2 µM; Emax (HepG2 cells [4]): 97%; IC50 (rat primary hepatocytes): 3.71 ± 0.47 µM; MMP assays efficacy (%) Rat Hepatocytes (rat primary hepatocytes): -125±63%; MMP assays efficacy (%) qHTS-HepG2 (HepG2 cells [5]): -96±2%; IC50 (HepG2 cells [5]): 1.35 ± 0.26 µM
CCc1cc(Cc2cc(CC)cc(C(C)(C)C)c2O)c(O)c(C(C)(C)C)c1 | 0.1174 | 0.117 | 0.5074 | 0.7525 | 0.8303 | 1.425 | 1.246 | 1.387 | 5 | -0.0103 | -0.09559 | -0.6519 | -0.6136 | -0.3378 | -0.154 | 0.1094 | 0.04601 |  | 96 (47.4) % of control | 105 (16.9) % of control | II-ADP, % of control (O2 consumption rate) ([3]; 20 µM): 100 (77.8) % of control; II-sub, % of control (O2 consumption rate) ([3]; 20 µM): 97 (29.7) % of control; I-ADP, % of control (O2 consumption rate) ([3]; 100 µM): 121 (34.8) % of control; I-sub, % of control (O2 consumption rate) ([3]; 100 µM): 175 (20.9) % of control; II-ADP, % of control (O2 consumption rate) ([3]; 100 µM): 98 (35.6) % of control; II-sub, % of control (O2 consumption rate) ([3]; 100 µM): 134 (19.8) % of control; Potential Mechanism [3]: Uncoupler; IC50 (HepG2 cells [4]): 2 µM; Emax (HepG2 cells [4]): 90%; IC50 (rat primary hepatocytes): 5.01 ± 4.35 µM; MMP assays efficacy (%) Rat Hepatocytes (rat primary hepatocytes): -78±36%; MMP assays efficacy (%) qHTS-HepG2 (HepG2 cells [5]): -111±18%; IC50 (HepG2 cells [5]): 1.22 ± 0.73 µM
CC(C)[C@@H]1NC(=O)[C@H](C)OC(=O)[C@@H](C(C)C)NC(=O)[C@@H](C(C)C)OC(=O)[C@H](C(C)C)NC(=O)[C@H](C)OC(=O)[C@@H](C(C)C)NC(=O)[C@@H](C(C)C)OC(=O)[C@H](C(C)C)NC(=O)[C@H](C)OC(=O)[C@@H](C(C)C)NC(=O)[C@@H](C(C)C)OC1=O [Valinomycin] | 0.09961 | 0.01293 | -0.07954 | -0.01187 | 0.0497 | 0.3415 | 0.411 | 0.3807 | 50 | -0.05222 | -0.06335 | 0.1958 | 0.3328 | 1.023 | 0.6115 | 0.5181 | 0.5717 | 25 |  |  | 
